# Results reported in patent publication US20240228488A1 (TAKEDA PHARMACEUTICAL COMPANY LIMITED, priority 2021, published 2024).
# Target: human activated kallikrein enzyme (Homo sapiens, UniProt P03952)
# Assay: Plasma kallikrein inhibition, fluorogenic PFR-AMC substrate, 500 pM activated kallikrein format
# Type: biochemical
# Conditions: 500 pM activated kallikrein, 300 uM PFR-AMC, 30 min preincubation, 10 min reaction; read-out: Primary Dose Response Assay: Average EC50
# Procedure, shortened: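 Enzyme at 500 pM preincubated 30 min RT with inhibitors in 20 mM Tris pH 7.5, 1 mM EDTA, 150 mM NaCl, 0.1% PEG-400, 0.1% Triton X-100. Reaction started with 300 uM PFR-AMC, run 10 min RT; fluorescence read at 460 nm emission, 380 nm excitation. EC50 reported in ranges.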
# human activated kallikrein enzyme, sequence (P03952 391-638 limits assumed): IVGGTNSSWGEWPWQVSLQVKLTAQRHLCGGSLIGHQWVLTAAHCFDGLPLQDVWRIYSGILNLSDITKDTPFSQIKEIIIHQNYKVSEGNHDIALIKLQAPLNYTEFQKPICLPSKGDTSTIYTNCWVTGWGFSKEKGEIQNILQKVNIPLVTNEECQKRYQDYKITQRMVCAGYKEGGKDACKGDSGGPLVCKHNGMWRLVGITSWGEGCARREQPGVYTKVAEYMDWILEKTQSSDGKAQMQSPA
# human activated kallikrein enzyme, sequence (P03952 20-390 partner limits assumed): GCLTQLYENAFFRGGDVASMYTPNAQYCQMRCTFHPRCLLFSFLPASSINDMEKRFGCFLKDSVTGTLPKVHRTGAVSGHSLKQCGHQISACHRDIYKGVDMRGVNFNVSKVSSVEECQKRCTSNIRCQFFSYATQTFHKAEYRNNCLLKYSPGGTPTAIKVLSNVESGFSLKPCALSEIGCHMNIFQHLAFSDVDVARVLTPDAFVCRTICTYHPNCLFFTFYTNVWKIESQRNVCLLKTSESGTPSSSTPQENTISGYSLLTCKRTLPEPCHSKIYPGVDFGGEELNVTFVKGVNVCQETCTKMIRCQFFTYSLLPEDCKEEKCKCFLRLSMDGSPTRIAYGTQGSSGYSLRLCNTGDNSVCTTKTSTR
row,SMILES,EC50 [nM]
1,"O=C(Nc1cc(NCc2cn3cc(C4CC4)ccc3n2)ncn1)[C@@H]1C[C@@]12C(=O)Nc1ccc(Cl)cc12 (racemic) [Example 510, rac-(1R*,2R*)-5′-chloro-N-(6-(((6-cyclopropylimidazo[1,2-a]pyridin-2-yl)methyl)amino)pyrimidin-4-yl)-2′-oxospiro[cyclopropane-1,3′-indoline]-2-carboxamide]",100 to 1000
2,"O=C(Nc1nccc2nn(Cc3cn4cc(C5CC5)ccc4n3)cc12)[C@H]1C[C@@H]1c1cccc(Cl)c1 [Example 580, (1S,2S)-2-(3-chlorophenyl)-N-(2-((6-cyclopropylimidazo[1,2-a]pyridin-2-yl)methyl)-2H-pyrazolo[4,3-c]pyridin-4-yl)cyclopropane-1-carboxamide]",1 to 10
3,"O=C(Nc1cc(NCc2cn3cc(C4CC4)ccc3n2)c(F)cn1)[C@H]1C[C@@H]1c1cccc(Cl)c1 (racemic) [Example 86, rac-(1S*,2S*)-2-(3-chlorophenyl)-N-(4-(((6-cyclopropylimidazo[1,2-a]pyridin-2-yl)methyl)amino)-5-fluoropyridin-2-yl)cyclopropane-1-carboxamide]",100 to 1000
4,"Cc1ccnc([C@H]2C[C@@H]2C(=O)Nc2cc(O[C@@H](C)c3cn4cc(C5CC5)cc(N5CC(=O)N(C)C5=O)c4n3)cnn2)n1 (single isomer, unassigned) [Example 41]",10 to 100
5,"O=C(Nc1cnnc(NCc2cn3cc(C4CC4)ccc3n2)c1)[C@H]1C[C@@H]1c1cccc(Cl)c1 (racemic) [Example 348, (rac-(1S*,2S*))-2-(3-chlorophenyl)-N-(6-(((6-cyclopropylimidazo[1,2-a]pyridin-2-yl)methyl)amino)pyridazin-4-yl)cyclopropane-1-carboxamide]",1 to 10
6,"COCCOc1ccc(Cl)cc1[C@H]1C[C@@H]1C(=O)Nc1cc(NCc2cn3cc(C4CC4)ccc3n2)ncn1 (racemic) [Example 310, rac-(1S*,2S*)-2-(5-chloro-2-(2-methoxyethoxy)phenyl)-N-(6-(((6-cyclopropylimidazo[1,2-a]pyridin-2-yl)methyl)amino)pyrimidin-4-yl)cyclopropane-1-carboxamide]",100 to 1000
7,"Cc1ccnc([C@H]2C[C@@H]2C(=O)Nc2ccc(C#N)c(OCc3cn4cc(C5CC5)cc(N5CC(=O)N(C)C5=O)c4n3)c2)n1 [Example 669, (1S,2S)—N-(4-cyano-3-((6-cyclopropyl-8-(3-methyl-2,4-dioxoimidazolidin-1-yl)imidazo[1,2-a]pyridin-2-yl)methoxy)phenyl)-2-(4-methylpyrimidin-2-yl)cyclopropane-1-carboxamide]",< 1
8,"Cc1cc(N2CC(=O)N(C)C2=O)c2nc(C(C)Oc3cnnc(NC(=O)[C@H]4C[C@@H]4c4nccc(C)n4)c3)cn2c1 (stereo partly drawn) [Example 36, (1S,2S)-N-(5-(1-(6-methyl-8-(3-methyl-2,4-dioxoimidazolidin-1-yl)imidazo[1,2-α]pyridin-2-yl)ethoxy)pyridazin-3-yl)-2-(4-methylpyrimidin-2-yl)cyclopropane-1-carboxamide]",< 1
9,"O=C(Nc1cc(NCc2cn3cc(C4CC4)ccc3n2)ncn1)[C@H]1C[C@@H]1c1cc(Cl)ccc1OC(F)F (racemic) [Example 311, rac-(1S*,2S*)-2-(5-chloro-2-(difluoromethoxy)phenyl)-N-(6-(((6-cyclopropylimidazo[1,2-a]pyridin-2-yl)methyl)amino)pyrimidin-4-yl)cyclopropane-1-carboxamide]",10 to 100
10,"N#Cc1ccc(Cl)cc1[C@@H]1C[C@H]1C(=O)Nc1cc(NCc2cn3cc(C4CC4)ccc3n2)ccn1 (single isomer, unassigned) [Example 83]",10 to 100
11,"O=C(Nc1cc(NCc2cn3cc(C4CC4)ccc3n2)ncn1)[C@@H]1C[C@]12C(=O)Nc1ccc(Cl)cc12 (racemic) [Example 509, rac-(1R*,2S*)-5′-chloro-N-(6-(((6-cyclopropylimidazo[1,2-a]pyridin-2-yl)methyl)amino)pyrimidin-4-yl)-2′-oxospiro[cyclopropane-1,3′-indoline]-2-carboxamide]",< 1
12,"N#CC1(c2cccc(Cl)c2)CC1C(=O)Nc1cc(NCc2cn3cc(C4CC4)ccc3n2)ncn1 (stereo not drawn) [Example 349, 2-(3-chlorophenyl)-2-cyano-N-(6-(((6-cyclopropylimidazo[1,2-a]pyridin-2-yl)methyl)amino)pyrimidin-4-yl)cyclopropane-1-carboxamide]",> 6000
13,"Cc1ccnc([C@H]2C[C@@H]2C(=O)Nc2cc(N[C@H](C)c3cn4cc(C5CC5)cc(N=S(C)(C)=O)c4n3)nc(C)n2)n1 [Example 431, (1S,2S)-N-(6-(((R)-1-(6-cyclopropyl-8-((dimethyl(oxo)-16-sulfaneylidene)amino)imidazo[1,2-a]pyridin-2-yl)ethyl)amino)-2-methylpyrimidin-4-yl)-2-(4-methylpyrimidin-2-yl)cyclopropane-1-carboxamide]",< 1
14,"Cc1ccnc([C@H]2C[C@@H]2C(=O)Nc2cc(N[C@H](C)c3cn4cc(C(F)F)cc(N5CC(=O)N(C)C5=O)c4n3)ncn2)n1 [Example 417, (1S,2S)-N-(6-(((R)-1-(6-(difluoromethyl)-8-(3-methyl-2,4-dioxoimidazolidin-1-yl)imidazo[1,2-a]pyridin-2-yl)ethyl)amino)pyrimidin-4-yl)-2-(4-methylpyrimidin-2-yl)cyclopropane-1-carboxamide]",< 1
15,"C[C@H]1[C@H](C(=O)Nc2cc(NCc3cn4cc(C5CC5)ccc4n3)ncn2)[C@H]1c1cccc(Cl)c1 (single isomer, unassigned) [Example 507, (1R*,2R*,3S*)-2-(3-chlorophenyl)-N-(6-(((6-cyclopropylimidazo[1,2-a]pyridin-2-yl)methyl)amino)pyrimidin-4-yl)-3-methylcyclopropane-1-carboxamide]",> 6000
16,"Cc1ccnc([C@H]2C[C@@H]2C(=O)Nc2cc(OCc3ccccc3)cc(OCc3cn4cc(C5CC5)cc(N5CC(=O)N(C)C5=O)c4n3)n2)n1 [Example 660, (1S,2S)—N-(4-(benzyloxy)-6-((6-cyclopropyl-8-(3-methyl-2,4-dioxoimidazolidin-1-yl)imidazo[1,2-a]pyridin-2-yl)methoxy)pyridin-2-yl)-2-(4-methylpyrimidin-2-yl)cyclopropane-1-carboxamide]",10 to 100
17,"Cc1ccnc([C@H]2C[C@@H]2C(=O)Nc2cc(O[C@H](C)c3cn4cc(C5CC5)cc(N5CC(=O)N(C)C5=O)c4n3)cnn2)n1 (single isomer, unassigned) [Example 42]",< 1

# Results, then the compound that gave them:
row,EC50 [nM],SMILES
1,< 1,"Cc1ccnc([C@H]2C[C@@H]2C(=O)Nc2cccc(OCc3cn4cc(C5CC5)cc(N5CC(=O)N(C)C5=O)c4n3)c2)n1 [Example I-643, (1S,2S)—N-(3-((6-cyclopropyl-8-(3-methyl-2,4-dioxoimidazolidin-1-yl)imidazo[1,2-a]pyridin-2-yl)methoxy)phenyl)-2-(4-methylpyrimidin-2-yl)cyclopropane-1-carboxamide]"
2,1 to 10,O=C(Nc1cc(NCc2cn3cc(C4CC4)cc(N4CCN(CC(F)(F)F)CC4)c3n2)ccn1)[C@H]1C[C@@H]1c1cccc(Cl)c1 (racemic) [Example I-20]
3,1 to 10,"O=C(Nc1cc(NCc2cn3cc(C4CC4)cc(N4CCN5CC(F)(F)CC5C4)c3n2)ccn1)[C@H]1C[C@@H]1c1cccc(Cl)c1 (stereo partly drawn) [Example I-230, (1S,2S)-2-(3-chlorophenyl)-N-(4-(((6-cyclopropyl-8-(7,7-difluorohexahydropyrrolo[1,2-a]pyrazin-2(1H)-yl)imidazo[1,2-a]pyridin-2-yl)methyl)amino)pyridin-2-yl)cyclopropane-1-carboxamide]"
4,10 to 100,"O=C(Nc1cc(NCc2cn3cc(C4CC4)ccc3n2)ncn1)[C@H]1C[C@@H]1c1cc(Cl)cs1 (racemic) [Example I-186, rac-(1S*,2S*)-2-(4-chlorothiophen-2-yl)-N-(6-(((6-cyclopropylimidazo[1,2-a]pyridin-2-yl)methyl)amino)pyrimidin-4-yl)cyclopropane-1-carboxamide]"
5,10 to 100,"CN1C(=O)CN(c2cc(C3CC3)cn3cc(CNc4cc(NC(=O)[C@@H]5C[C@H]5c5cc(Cl)ccn5)ncn4)nc23)C1=O (single isomer, unassigned) [Example I-263]"
6,100 to 1000,"O=C(Nc1cc(NCc2cn3cc(C4CC4)ccc3n2)ncn1)[C@H]1C[C@@H]1c1cc(Cl)ncn1 (racemic) [Example I-176, rac-(1S*,2S*)-2-(6-chloropyrimidin-4-yl)-N-(6-(((6-cyclopropylimidazo[1,2-a]pyridin-2-yl)methyl)amino)pyrimidin-4-yl)cyclopropane-1-carboxamide]"
7,1000 to 6000,"O=C(Nc1cc(NCc2cn3cc(C4CC4)ccc3n2)ccn1)[C@@H]1C[C@]12CCc1ccc(Cl)cc12 (relative stereo) [Example I-272, rac-(1S*,2S*)-6′-chloro-N-(4-(((6-cyclopropylimidazo[1,2-a]pyridin-2-yl)methyl)amino)pyridin-2-yl)-2′,3′-dihydrospiro[cyclopropane-1,1′-indene]-2-carboxamide]"
8,100 to 1000,"O=C(Nc1cc(NCc2cn3cc(C4CC4)ccc3n2)ncn1)[C@H]1C[C@@H]1c1ccc(Cl)s1 (racemic) [Example I-185, rac-(1S*,2S*)-2-(5-chlorothiophen-2-yl)-N-(6-(((6-cyclopropylimidazo[1,2-a]pyridin-2-yl)methyl)amino)pyrimidin-4-yl)cyclopropane-1-carboxamide]"
9,10 to 100,"Cc1ccnc([C@H]2C[C@@H]2C(=O)Nc2cccc(SCc3cn4cc(C5CC5)cc(N5CC(=O)N(C)C5=O)c4n3)c2)n1 [Example I-645, (1S,2S)—N-(3-(((6-cyclopropyl-8-(3-methyl-2,4-dioxoimidazolidin-1-yl)imidazo[1,2-a]pyridin-2-yl)methyl)thio)phenyl)-2-(4-methylpyrimidin-2-yl)cyclopropane-1-carboxamide]"

# Same assay, conditions: comparative compounds, 500 pM activated kallikrein format; read-out: Primary Dose Response Assay: Average EC50
row,EC50 [nM],SMILES
1,1000 to 6000,O=C(NCc1cccc(Cl)c1)c1cnn(Cc2cn3cc(C4CC4)ccc3n2)c1
